From patent US8735398B2 (Bristol-Myers Squibb Company, priority 2009, dated 2014)

test system: HCV 1b genotype; assay: HCV replicon assay (HCV-neo replicon cells, wild-type); format: cell-based, Hepatitis C virus; settings: HCV 1b genotype replicon; class symbol; read-out: EC50 Range against HCV 1b
Outline: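 Inhibition was tested in replicon-bearing cells, both wild-type HCV-neo and lines with NS5A resistance substitutions, using the O'Boyle et al. 2005 replicon method or luciferase-reporter formats.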

| SMILES | EC50 |
| --- | --- |
| O=C(Nc1ccc(-c2ccc(-c3ccc(NC(=O)[C@@H]4CCCN4C(=O)[C@H](O)c4ccccc4)cc3)o2)cc1)[C@@H]1CCCN1C(=O)[C@H](O)c1ccccc1 [JG-57, (2S,2′S)-N,N′-(2,5-furandiyldi-4,1-phenylene)bis(1-((2R)-2-hydroxy-2-phenylacetyl)-2-pyrrolidinecarboxamide)] | 100 to 999 nM |

same assay, conditions: HCV 1b genotype replicon; class symbols; read-out: EC50 Range against HCV 1b

| SMILES | EC50 |
| --- | --- |
| CN(C)[C@H](C(=O)N1CCC[C@H]1C(=O)Nc1ccc(-c2cnc(-c3ccc(NC(=O)[C@@H]4CCCN4C(=O)[C@H]([C@H](O)c4ccccc4)N(C)C)cc3)o2)cc1)[C@H](O)c1ccccc1 [JR-14, (S,R,2S)-N,N′-(4,4′-(oxazole-2,5-diyl)bis(4,1-phenylene))bis(1-((2S,3R)-2-(dimethylamino)-3-hydroxy-3-phenylpropanoyl)pyrrolidine-2-carboxamide)] | 1000 to 10000 nM |

same assay, conditions: Hepatitis C virus, HCV 1b genotype replicon; class symbol; read-out: EC50 Range against HCV 1b

| SMILES | EC50 |
| --- | --- |
| O=C(Nc1ccc(-c2cnc(-c3ccc(NC(=O)[C@@H]4C[C@@H](O)CN4C(=O)Cc4ccccc4)cc3)o2)cc1)[C@@H]1C[C@@H](O)CN1C(=O)Cc1ccccc1 [JG-2, (2S,4R,2′S,4′R)-N,N′-(1,3-oxazole-2,5-diyldi-4,1-phenylene)bis(4-hydroxy-1-(phenylacetyl)-2-pyrrolidinecarboxamide)] | < 4.57 nM |
| O=C(Nc1ccc(-c2cnc(-c3ccc(NC(=O)[C@@H]4CCCN4C(=O)[C@@H](O)c4ccccc4)cc3)o2)cc1)[C@@H]1CCCN1C(=O)[C@@H](O)c1ccccc1 [JG-20, (2S,2′S)-N,N′-(1,3-oxazole-2,5-diyldi-4,1-phenylene)bis(1-((2S)-2-hydroxy-2-phenylacetyl)-2-pyrrolidinecarboxamide)] | 4.57 to 99 nM |
| CC(O)(C(=O)N1CCC[C@H]1C(=O)Nc1ccc(-c2ncc(-c3ccc(NC(=O)[C@@H]4CCCN4C(=O)[C@@](C)(O)c4ccccc4)cc3)o2)cc1)c1ccccc1 (stereo partly drawn) [JG-22, (2S)-1-((2S)-2-hydroxy-2-phenylpropanoyl)-N-(4-(2-(4-((((2S)-1-(2-hydroxy-2-phenylpropanoyl)-2-pyrrolidinyl)carbonyl)amino)phenyl)-1,3-oxazol-5-yl)phenyl)-2-pyrrolidinecarboxamide] | < 4.57 nM |
| CO[C@H](C(=O)N1CCC[C@H]1C(=O)Nc1ccc(-c2cc(-c3ccc(NC(=O)[C@@H]4CCCN4C(=O)[C@@H](OC)c4ccccc4)cc3)[nH]n2)cc1)c1ccccc1 [JG-38, (2S,2′S)-N,N′-(1H-pyrazole-3,5-diyldi-4,1-phenylene)bis(1-((2S)-2-methoxy-2-phenylacetyl)-2-pyrrolidinecarboxamide)] | < 4.57 nM |
| CC(O)(C(=O)N1CCC[C@H]1C(=O)Nc1ccc(-c2ccc(-c3ccc(NC(=O)[C@@H]4CCCN4C(=O)[C@@](C)(O)c4ccccc4)cc3)o2)cc1)c1ccccc1 (stereo partly drawn) [JG-59, (2S)-1-((2S)-2-hydroxy-2-phenylpropanoyl)-N-(4-(5-(4-((((2S)-1-(2-hydroxy-2-phenylpropanoyl)-2-pyrrolidinyl)carbonyl)amino)phenyl)-2-furyl)phenyl)-2-pyrrolidinecarboxamide] | < 4.57 nM |
| CN(C)[C@@H](C(=O)N1CCC[C@@H]1C(=O)N1CCC[C@H]1C(=O)Nc1ccc(-c2cnc(-c3ccc(NC(=O)[C@@H]4CCCN4C(=O)[C@H]4CCCN4C(=O)[C@@H](c4ccccc4)N(C)C)cc3)o2)cc1)c1ccccc1 [Example D-39, (2S,2′S)-N,N′-(1,3-oxazole-2,5-diyldi-4,1-phenylene)bis(1-(((2R)-1-((2R)-2-(dimethylamino)-2-phenylacetyl)-2-pyrrolidinyl)carbonyl)-2-pyrrolidinecarboxamide)] | 1000 to 10000 nM |
| O=C(Nc1ccc(-c2nc[nH]c2-c2ccc(NC(=O)[C@@H]3C[C@@H](O)CN3C(=O)Cc3ccccc3)cc2)cc1)[C@@H]1C[C@@H](O)CN1C(=O)Cc1ccccc1 [OL-11] | 100 to 999 nM |
| CCOC(=O)Cc1nc(-c2ccc(NC(=O)[C@H](C)NC(=O)OCc3ccccc3)cc2)c(-c2ccc(NC(=O)[C@H](C)NC(=O)OCc3ccccc3)cc2)o1 [OL-1d, 4,5-bis[4-[[(2S)-1-oxo-2-[[(phenylmethoxy)carbonyl]amino]propyl]amino]phenyl]-2-oxazoleacetic acid, ethyl ester] | 1000 to 10000 nM |
| C[C@H](NC(=O)c1nc(Cl)cc2ccccc12)C(=O)Nc1ccc(-c2cc(-c3ccc(NC(=O)[C@H](C)NC(=O)c4nc(Cl)cc5ccccc45)cc3)[nH]n2)cc1 [OL-48, N,N′-(1H-pyrazole-3,5-diylbis(4,1-phenyleneimino((2S)-1-oxo-1,2-propanediyl)))bis(3-chloro-1-isoquinolinecarboxamide)] | 100 to 999 nM |
| C[C@H](NC(=O)c1ccco1)C(=O)Nc1ccc(-c2nnc(-c3ccc(NC(=O)[C@H](C)NC(=O)c4ccco4)cc3)o2)cc1 [RK-21, N,N′-(1,3,4-oxadiazole-2,5-diylbis(4,1-phenyleneimino((2S)-1-oxo-1,2-propanediyl)))di(2-furamide)] | 1000 to 10000 nM |
| O=C(Nc1ccc(-c2nnc(-c3ccc(NC(=O)[C@@H]4CCC(=O)N4C(=O)OCc4ccccc4)cc3)o2)cc1)[C@@H]1CCC(=O)N1C(=O)OCc1ccccc1 [RK-2, dibenzyl (2S,2′S)-2,2′-(1,3,4-oxadiazole-2,5-diylbis(4,1-phenylenecarbamoyl))bis(5-oxo-1-pyrrolidinecarboxylate)] | 1000 to 10000 nM |
| C[C@H](NC(=O)[C@@](C)(O)c1ccccc1)C(=O)Nc1ccc(-c2nnc(-c3ccc(NC(=O)[C@H](C)NC(=O)[C@@](C)(O)c4ccccc4)cc3)o2)cc1 [RK-30, (2S,2′S)-N,N′-(1,3,4-oxadiazole-2,5-diylbis(4,1-phenyleneimino((2S)-1-oxo-1,2-propanediyl)))bis(2-hydroxy-2-phenylpropanamide)] | 100 to 999 nM |
| O=C(Nc1ccc(-c2ccc(-c3ccc(NC(=O)[C@@H]4CCCN4C(=O)c4nc(Cl)cc5ccccc45)cc3)o2)cc1)[C@@H]1CCCN1C(=O)c1nc(Cl)cc2ccccc12 [JG-61, (2S,2′S)-N,N′-(2,5-furandiyldi-4,1-phenylene)bis(1-((3-chloro-1-isoquinolinyl)carbonyl)-2-pyrrolidinecarboxamide)] | 1000 to 10000 nM |
| O=C(Nc1ccc(-c2cc(-c3ccc(NC(=O)[C@@H]4CCCN4C(=O)C4CCC4)cc3)[nH]n2)cc1)[C@@H]1CCCN1C(=O)C1CCC1 [OL-33, (2S,2′S)-N,N′-(1H-pyrazole-3,5-diyldi-4,1-phenylene)bis(1-(cyclobutylcarbonyl)-2-pyrrolidinecarboxamide)] | 100 to 999 nM |
| CC1(C(=O)N2CCC[C@H]2C(=O)Nc2ccc(-c3cnc(-c4ccc(NC(=O)[C@@H]5CCCN5C(=O)C5(C)CCCN5)cc4)o3)cc2)CCCN1 (stereo partly drawn) [Example D-36, (2S,2′S)-N,N′-(1,3-oxazole-2,5-diyldi-4,1-phenylene)bis(1-((2-methyl-2-pyrrolidinyl)carbonyl)-2-pyrrolidinecarboxamide)] | 1000 to 10000 nM |

same assay, conditions: Hepatitis C virus, HCV 1b genotype replicon; class symbols; read-out: EC50 Range against HCV 1b

| SMILES | EC50 |
| --- | --- |
| COc1cccc(CC(=O)N2C[C@H](O)C[C@H]2C(=O)Nc2ccc(-c3cnc(-c4ccc(NC(=O)[C@@H]5C[C@@H](O)CN5C(=O)Cc5cccc(OC)c5)cc4)o3)cc2)c1 [XY-55, (2S,4R,2′S,4′R)-N,N′-(1,3-oxazole-2,5-diyldi-4,1-phenylene)bis(4-hydroxy-1-((3-methoxyphenyl)acetyl)-2-pyrrolidinecarboxamide)] | 100 to 999 nM |
| C[C@H](NC(=O)c1nc(Cl)cc2ccccc12)C(=O)Nc1ccc(-c2nnc(-c3ccc(NC(=O)[C@H](C)NC(=O)c4nc(Cl)cc5ccccc45)cc3)o2)cc1 [RK-36, N,N′-(1,3,4-oxadiazole-2,5-diylbis(4,1-phenyleneimino((2S)-1-oxo-1,2-propanediyl)))bis(3-chloro-1-isoquinolinecarboxamide)] | 1000 to 10000 nM |
| CC(C)(C)O[C@@H]1C[C@@H](C(=O)Nc2ccc(-c3cnc(-c4ccc(NC(=O)[C@@H]5C[C@@H](OC(C)(C)C)CN5C(=O)OCc5ccccc5)cc4)o3)cc2)N(C(=O)OCc2ccccc2)C1 [XY-59, dibenzyl (2S,4R,2′S,4′R)-2,2′-(1,3-oxazole-2,5-diylbis(4,1-phenylenecarbamoyl))bis(4-tert-butoxy-1-pyrrolidinecarboxylate)] | 1000 to 10000 nM |
| COc1ccc2[nH]cc(CC(=O)N3CCC[C@H]3C(=O)Nc3ccc(-c4cnc(-c5ccc(NC(=O)[C@@H]6CCCN6C(=O)Cc6c[nH]c7ccc(OC)cc67)cc5)o4)cc3)c2c1 [XY-11, (2S,2′S)-N,N′-(1,3-oxazole-2,5-diyldi-4,1-phenylene)bis(1-((5-methoxy-1H-indol-3-yl)acetyl)-2-pyrrolidinecarboxamide)] | 100 to 999 nM |
| O=C(Nc1ccc(-c2cnc(-c3ccc(NC(=O)[C@@H]4CCCN4C(=O)C(O)Cc4c[nH]c5ccccc45)cc3)o2)cc1)[C@@H]1CCCN1C(=O)C(O)Cc1c[nH]c2ccccc12 (stereo partly drawn) [JR-5, (2S,2′S)-N,N′-(2,5-oxazolediyldi-4,1-phenylene)bis[1-[2-hydroxy-3-(1H-indol-3-yl)-1-oxopropyl]-2-pyrrolidinecarboxamide]] | 100 to 999 nM |
| Cn1ccnc1C(=O)N1CCC[C@H]1C(=O)Nc1ccc(-c2cnc(-c3ccc(NC(=O)[C@@H]4CCCN4C(=O)c4nccn4C)cc3)o2)cc1 [XY-21, (2S,2′S)-N,N′-(1,3-oxazole-2,5-diyldi-4,1-phenylene)bis(1-((1-methyl-1H-imidazol-2-yl)carbonyl)-2-pyrrolidinecarboxamide)] | 1000 to 10000 nM |
| O=C(Nc1ccc(-c2cnc(-c3ccc(NC(=O)[C@@H]4CCCN4C(=O)c4cc(F)cc(F)c4)cc3)o2)cc1)[C@@H]1CCCN1C(=O)c1cc(F)cc(F)c1 [XY-7, (2S,2′S)-N,N′-(1,3-oxazole-2,5-diyldi-4,1-phenylene)bis(1-(3,5-difluorobenzoyl)-2-pyrrolidinecarboxamide)] | 100 to 999 nM |
| Cc1ncccc1C(=O)N1CCC[C@H]1C(=O)Nc1ccc(-c2cnc(-c3ccc(NC(=O)[C@@H]4CCCN4C(=O)c4cccnc4C)cc3)o2)cc1 [XY-30, (2S,2′S)-N,N′-(1,3-oxazole-2,5-diyldi-4,1-phenylene)bis(1-((2-methyl-3-pyridinyl)carbonyl)-2-pyrrolidinecarboxamide)] | 1000 to 10000 nM |

same assay, conditions: Hepatitis C virus, HCV 1b genotype replicon; read-out: EC50 1b

| SMILES | EC50 |
| --- | --- |
| C[C@H](NC(=O)c1nc(Cl)cc2ccccc12)C(=O)Nc1ccc(-c2nnc(-c3ccc(NC(=O)[C@H](C)NC(=O)c4nc(Cl)cc5ccccc45)cc3)o2)cc1 [RK-36, N,N′-(1,3,4-oxadiazole-2,5-diylbis(4,1-phenyleneimino((2S)-1-oxo-1,2-propanediyl)))bis(3-chloro-1-isoquinolinecarboxamide)] | 1000 nM |
| O=C(Nc1ccc(-c2cnc(-c3ccc(NC(=O)[C@@H]4C[C@@H](O)CN4C(=O)Cc4ccccc4)cc3)o2)cc1)[C@@H]1C[C@@H](O)CN1C(=O)Cc1ccccc1 [JG-2, (2S,4R,2′S,4′R)-N,N′-(1,3-oxazole-2,5-diyldi-4,1-phenylene)bis(4-hydroxy-1-(phenylacetyl)-2-pyrrolidinecarboxamide)] | 2 nM |
| CC(O)(C(=O)N1CCC[C@H]1C(=O)Nc1ccc(-c2ncc(-c3ccc(NC(=O)[C@@H]4CCCN4C(=O)[C@@](C)(O)c4ccccc4)cc3)o2)cc1)c1ccccc1 (stereo partly drawn) [JG-22, (2S)-1-((2S)-2-hydroxy-2-phenylpropanoyl)-N-(4-(2-(4-((((2S)-1-(2-hydroxy-2-phenylpropanoyl)-2-pyrrolidinyl)carbonyl)amino)phenyl)-1,3-oxazol-5-yl)phenyl)-2-pyrrolidinecarboxamide] | < 5 nM |
| C[C@H](NC(=O)c1nc(Cl)cc2ccccc12)C(=O)Nc1ccc(-c2cc(-c3ccc(NC(=O)[C@H](C)NC(=O)c4nc(Cl)cc5ccccc45)cc3)[nH]n2)cc1 [OL-48, N,N′-(1H-pyrazole-3,5-diylbis(4,1-phenyleneimino((2S)-1-oxo-1,2-propanediyl)))bis(3-chloro-1-isoquinolinecarboxamide)] | 280 nM |
